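96-well plates; 48 h exposure; 5 concentrations. Endpoints by linear interpolation between flanking doses. Not reached: highest tested concentration assigned. GI50: concentration for 50% inhibition of growth.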 Active and inactive are the calls of the source. Rule as the data show it: active = GI50 up to about 1.1 µM and inactive = higher.
Assays:
Experiment in all cases: DTP human tumour cell line panel, 48 h
[1] = test system: HT-29
[2] = test system: A549
[3] = test system: Malme-3M
[4] = test system: T47D
[5] = test system: EKVX
[6] = test system: TK-10
[7] = test system: HCT-15
[8] = test system: 786-0
[9] = test system: SF-295
[10] = test system: NCI-H460
[11] = test system: SF-268
[12] = test system: IGROV-1
[13] = test system: LOX IMVI
[14] = test system: U-251
[15] = test system: MDA-MB-231
[16] = test system: OVCAR-5
[17] = test system: MOLT-4
[18] = test system: SK-MEL-5
[19] = test system: MDA-MB-435
[20] = test system: OVCAR-4
[21] = test system: OVCAR-8
[22] = test system: ACHN
[23] = test system: NCI/ADR-RES
[24] = test system: HOP-92
[25] = test system: A498
[26] = test system: NCI-H522
[27] = test system: CAKI-1
[28] = test system: BT-549
[29] = test system: HCT-116
[30] = test system: KM12
[31] = test system: HOP-62
[32] = test system: SK-OV-3
[33] = test system: OVCAR-3
[34] = test system: UACC-257
[35] = test system: M14
[36] = test system: COLO 205
[37] = test system: NCI-H226
[38] = test system: SNB-19
[39] = test system: SK-MEL-28
[40] = test system: UO-31
[41] = test system: NCI-H23
[42] = test system: SF-539
[43] = test system: DU-145
[44] = test system: SNB-75
[45] = test system: RXF 393
[46] = test system: SW-620
[47] = test system: SN12C
[48] = test system: RPMI-8226
[49] = test system: SK-MEL-2
[50] = test system: HL-60
[51] = test system: MDA-N
[52] = test system: HCC 2998
[53] = test system: CCRF-CEM
[54] = test system: Hs-578T
[55] = test system: MCF7
[56] = test system: PC-3
[57] = test system: K562
[58] = test system: SR

For `CN(C(=O)C1CCCCCC1=O)c1ccccc1Cl` (stereo not given), the GI50 [1] was > 100 µM (inactive), the GI50 [2] was > 100 µM (inactive) and the GI50 [3] was > 100 µM (inactive). For the same compound, the GI50 [4] was > 100 µM (inactive), the GI50 [5] was > 100 µM (inactive) and the GI50 [6] was > 100 µM (inactive). For the same compound, the GI50 [7] was > 100 µM, the GI50 [8] was > 100 µM (inactive) and the GI50 [9] was > 100 µM (inactive). The GI50 [10] was > 100 µM (inactive), the GI50 [11] was > 100 µM (inactive) and the GI50 [12] was > 100 µM (inactive). The GI50 [13] was > 100 µM (inactive), the GI50 [14] was > 100 µM (inactive) and the GI50 [15] was > 100 µM (inactive). For the same compound, the GI50 [16] was > 100 µM (inactive), the GI50 [17] was > 100 µM (inactive) and the GI50 [18] was > 100 µM (inactive). For the same compound, the GI50 [19] was > 100 µM (inactive), the GI50 [20] was > 100 µM (inactive) and the GI50 [21] was > 100 µM (inactive). The GI50 [22] was > 100 µM (inactive), the GI50 [23] was > 100 µM (inactive) and the GI50 [24] was > 100 µM (inactive). For the same compound, the GI50 [25] was > 100 µM (inactive), the GI50 [26] was > 100 µM (inactive) and the GI50 [27] was > 100 µM (inactive). The GI50 [28] was > 100 µM (inactive), the GI50 [29] was > 100 µM (inactive) and the GI50 [30] was > 100 µM (inactive). The GI50 [31] was > 100 µM (inactive), the GI50 [32] was > 100 µM (inactive) and the GI50 [33] was > 100 µM (inactive). The GI50 [34] was > 100 µM (inactive), the GI50 [35] was > 100 µM (inactive) and the GI50 [36] was > 100 µM (inactive). The GI50 [37] was > 100 µM (inactive), the GI50 [38] was > 100 µM (inactive) and the GI50 [39] was > 100 µM (inactive). The GI50 [40] was > 100 µM (inactive), the GI50 [41] was > 100 µM (inactive) and the GI50 [42] was > 100 µM (inactive). For the same compound, the GI50 [43] was > 100 µM (inactive), the GI50 [44] was > 100 µM (inactive) and the GI50 [45] was > 100 µM (inactive). For the same compound, the GI50 [46] was > 100 µM (inactive), the GI50 [47] was > 100 µM (inactive) and the GI50 [48] was > 100 µM (inactive).

For `Cc1ccc(S(=O)(=O)N/C(=C\C=C\c2ccccc2)C(=O)C(C)(C)C)cc1`, the GI50 [49] was > 100 µM (inactive), the GI50 [50] was > 100 µM (inactive) and the GI50 [1] was > 100 µM (inactive). For the same compound, the GI50 [2] was 46.5 µM (inactive), the GI50 [3] was > 100 µM (inactive) and the GI50 [4] was 85.1 µM (inactive). For the same compound, the GI50 [5] was > 100 µM (inactive), the GI50 [6] was > 100 µM (inactive) and the GI50 [7] was > 100 µM. For the same compound, the GI50 [8] was 27.5 µM (inactive), the GI50 [51] was > 100 µM (inactive) and the GI50 [9] was 75 µM (inactive). For the same compound, the GI50 [52] was > 100 µM (inactive), the GI50 [10] was > 100 µM (inactive) and the GI50 [11] was 46.2 µM (inactive). The GI50 [12] was 50.5 µM (inactive), the GI50 [13] was > 100 µM (inactive) and the GI50 [53] was > 100 µM (inactive). For the same compound, the GI50 [14] was 63.1 µM (inactive), the GI50 [15] was 29.9 µM (inactive) and the GI50 [16] was > 100 µM (inactive). For the same compound, the GI50 [17] was > 100 µM (inactive), the GI50 [18] was 56 µM (inactive) and the GI50 [19] was > 100 µM (inactive). For the same compound, the GI50 [20] was 35.2 µM (inactive), the GI50 [21] was 51.4 µM (inactive) and the GI50 [22] was 58.5 µM (inactive). The GI50 [23] was 42.3 µM (inactive), the GI50 [24] was 22.7 µM (inactive) and the GI50 [54] was 35.1 µM (inactive). For the same compound, the GI50 [55] was 73.1 µM (inactive), the GI50 [25] was 89.5 µM (inactive) and the GI50 [56] was 75.2 µM (inactive). For the same compound, the GI50 [26] was 59 µM (inactive), the GI50 [27] was > 100 µM (inactive) and the GI50 [29] was > 100 µM (inactive). The GI50 [30] was > 100 µM (inactive), the GI50 [31] was 19.5 µM (inactive) and the GI50 [32] was 38.6 µM (inactive). For the same compound, the GI50 [33] was > 100 µM (inactive), the GI50 [34] was 45.5 µM (inactive) and the GI50 [35] was > 100 µM (inactive). For the same compound, the GI50 [36] was > 100 µM (inactive), the GI50 [57] was > 100 µM (inactive) and the GI50 [58] was > 100 µM (inactive). For the same compound, the GI50 [37] was > 100 µM (inactive), the GI50 [38] was 55.5 µM (inactive) and the GI50 [39] was > 100 µM (inactive). The GI50 [40] was > 100 µM (inactive), the GI50 [41] was 59.4 µM (inactive) and the GI50 [42] was 37.9 µM (inactive). The GI50 [43] was > 100 µM (inactive), the GI50 [44] was 56.2 µM (inactive) and the GI50 [45] was 37.8 µM (inactive). The GI50 [46] was > 100 µM (inactive), the GI50 [47] was > 100 µM (inactive) and the GI50 [48] was 0.492 µM (active).

Reference: ChEMBL document CHEMBL1201862, “PubChem BioAssay data set” (2004)
